# *1 amine or outer side, *2 acyl side, *3 side chain or, on linkers, in order; H or OH if unused. Where a SMILES comes first, the peptide text is derived from it. Bridges are numbered along the chain shown (N, C = ends). [ ]: non-standard residue; d: D form. The star is where a group is joined. ξ: configuration not given here. X5 = O=C([C@H](CCC[C@@H]1CC(F)(F)CN1)N[*:1])[*:2]; CH2(1,2,4-oxadiazolon-3-yl) = O=c1[nH]c(C*)no1; NMePhe(3-Cl) = CN[C@@H](Cc1cccc(Cl)c1)C(=O)O; X12 = O=C([C@H](CCCC(O)C(F)(F)F)N[*:1])[*:2]; Pro(4,4-F2)ψ(CH2) = FC1(F)CN[C@H](C*)C1; NMeF = CN[C@@H](Cc1ccccc1)C(=O)O; NMeGABA = CN(CCCC(=O)[*:2])[*:1]; NMeL = CN[C@@H](CC(C)C)C(=O)O; NMeAbu = CC[C@H](NC)C(=O)O; NMeA = CN[C@@H](C)C(=O)O; Piperidide = C1CCN(*)CC1; CH2CONHMe = CNC(=O)C*; Me2NCH2CH2 = CN(C)CC*; NBuGly = CCCCNCC(=O)O; NPrGly = CCCNCC(=O)O; ξS = NC(CO)C(=O)O; Sar = CNCC(=O)O; tBu = CC(C)(C)*
# Assay: Membrane permeability test of cyclic peptides (Caco-2, modified/improved method of WO 2018/124162)
# Conditions: human
# [1] = Caco-2, Caco-2 (cm/sec), membrane permeability of cyclic peptides, Caco-2
# [2] = Caco-2, Caco-2 (membrane permeability), Table 10, cyclic peptides containing Ser(S-4-F2-Pyrro-Me) (G) or Nva(2-R-4-F2-Pyrro) (H)
structure (smiles),measurement,setting,value
"CCCCN1CC(=O)N(C)[C@@H](CC(C)C)C(=O)N[C@@H](COC(C)(C)C)C(=O)N(C)[C@@H](CC(C)C)C(=O)N(C)[C@@H](CC(C)C)C(=O)N[C@H](C(=O)N2CCCCC2)CC(=O)N[C@H](CC(C)C)C(=O)N(C)[C@@H](Cc2ccccc2)C(=O)NC(COCc2noc(=O)[nH]2)C(=O)N(C)[C@@H](CC(C)C)C(=O)N[C@@H]([C@@H](C)O)C1=O (stereo partly drawn) [AP45] ([dL][NMeF][ξS](CH2(1,2,4-oxadiazolon-3-yl))[NMeL]T[NBuGly][NMeL]S(tBu)[NMeL][NMeL]D-Piperidide; lactam N-11)",Papp,[1],1.4 ×10⁻⁶ cm/s
CC(C)C[C@@H]1NC(=O)[C@H](Cc2ccccc2)N(C)C(=O)[C@H](Cc2ccccc2)N(C)C(=O)[C@H](COCCN(C)C)NC(=O)[C@H](CC(C)C)N(C)C(=O)CCCN(C)C(=O)C[C@@H](C(=O)N2CCCCC2)NC(=O)[C@H](CC(C)C)N(C)C(=O)[C@H](CC(C)C)N(C)C(=O)[C@H]([C@@H](C)O)NC(=O)[C@H](CC(C)C)N(C)C1=O [pd55] ([NMeGABA][NMeL]S(Me2NCH2CH2)[NMeF][NMeF]L[NMeL]T[NMeL][NMeL]D-Piperidide; lactam N-11),Papp,"Caco-2, Caco-2, Papp, membrane permeability, cyclic peptides comprising Ser(Et-2-NMe2) or Gln(Ms) (Table 27)",0.1 ×10⁻⁶ cm/s
CCCCN1CC(=O)N(C)[C@@H](CC(C)C)C(=O)N[C@@H](COC(C)(C)C)C(=O)N(C)[C@@H](Cc2ccccc2)C(=O)N(C)[C@@H](C)C(=O)N[C@H](C(=O)N2CCCCC2)CC(=O)N[C@H](C)C(=O)N(C)[C@@H](CC)C(=O)N[C@@H](C(C)C)C(=O)N(C)[C@@H](CC(C)C)C(=O)N[C@@H](CCC[C@@H]2CC(F)(F)CN2)C1=O [Compound H08] ([dA][NMeAbu]V[NMeL][X5][NBuGly][NMeL]S(tBu)[NMeF][NMeA]D-Piperidide; lactam N-11),Papp,[2],0.92 ×10⁻⁶ cm/s
"CCCCN1CC(=O)N(C)[C@@H](CC)C(=O)N[C@@H](COC[C@@H]2CC(F)(F)CN2)C(=O)N(C)[C@@H](Cc2ccccc2)C(=O)N(C)[C@@H](CC)C(=O)N[C@H](C(=O)N2CCCCC2)CC(=O)N[C@H](CC(C)C)C(=O)N(C)[C@@H](CC(C)C)C(=O)N[C@@H](C(C)C)C(=O)N(C)[C@@H](CC(C)C)C(=O)N[C@@H]([C@@H](C)O)C1=O [Compound G02] ([dL][NMeL]V[NMeL]T[NBuGly][NMeAbu]S(Pro(4,4-F2)ψ(CH2))[NMeF][NMeAbu]D-Piperidide; lactam N-11)",Papp,[2],0.4 ×10⁻⁶ cm/s
CC(C)C[C@H]1C(=O)N[C@@H](C(C)C)C(=O)N(C)[C@@H](Cc2ccccc2)C(=O)N(C)[C@@H](Cc2ccccc2)C(=O)N[C@@H](COC(C)(C)C)C(=O)N(C)[C@@H](CC(C)C)C(=O)N[C@@H](CCCC(O)C(F)(F)F)C(=O)N(C)[C@@H](CC(C)C)C(=O)N(C)[C@@H](CC(C)C)C(=O)N[C@H](C(=O)N2CCCCC2)CC(=O)N(C)CCCC(=O)N1C (stereo partly drawn) [Compound D12] ([NMeGABA][NMeL]V[NMeF][NMeF]S(tBu)[NMeL][X12][NMeL][NMeL]D-Piperidide; lactam N-11),Papp,"Caco-2, Caco-2 (membrane permeability), Table 6, cyclic peptides containing Ser(1-CF3-EtOH) (C) or Hnl(7-F3-6-OH) (D)",0.13 ×10⁻⁶ cm/s
"CCCCN1CC(=O)N(C)[C@@H](CC(C)C)C(=O)N[C@@H](COC(C)(C)C)C(=O)N(C)[C@@H](Cc2ccccc2)C(=O)N(C)[C@@H](CC)C(=O)N[C@H](C(=O)N2CCCCC2)CC(=O)N[C@H](C)C(=O)N(C)[C@@H](CC)C(=O)N[C@@H](C(C)C)C(=O)N(C)[C@@H](CC(C)C)C(=O)N[C@@H](COC[C@@H]2CC(F)(F)CN2)C1=O [Compound G08] ([dA][NMeAbu]V[NMeL]S(Pro(4,4-F2)ψ(CH2))[NBuGly][NMeL]S(tBu)[NMeF][NMeAbu]D-Piperidide; lactam N-11)",Papp,[2],1.3 ×10⁻⁶ cm/s
CCCN1CC(=O)N(C)[C@@H](CC(C)C)C(=O)N[C@@H](CC(C)C)C(=O)N(C)[C@@H](Cc2ccccc2)C(=O)N(C)[C@@H](CC(C)C)C(=O)N[C@H](C(=O)N2CCCCC2)CC(=O)N[C@H](CC(C)C)C(=O)N(C)[C@@H](Cc2ccccc2)C(=O)N[C@@H](COCC(=O)NC)C(=O)N(C)[C@@H](CC(C)C)C(=O)N[C@@H]([C@@H](C)O)C1=O [Compound I01] ([dL][NMeF]S(CH2CONHMe)[NMeL]T[NPrGly][NMeL]L[NMeF][NMeL]D-Piperidide; lactam N-11),Papp,"Caco-2, Caco-2 (membrane permeability), Table 12, cyclic peptides containing Ser(NMe-Aca) (I) or Gln(Me) (J)",0.27 ×10⁻⁶ cm/s
"CCCCN1CC(=O)N(C)[C@@H](Cc2cccc(Cl)c2)C(=O)N(C)[C@@H](CC(C)C)C(=O)N[C@@H](COCc2noc(=O)[nH]2)C(=O)N(C)[C@@H](CC(C)C)C(=O)N[C@H](C(=O)N2CCCCC2)CC(=O)N(C)CC(=O)N(C)[C@@H](CC(C)C)C(=O)N[C@@H]([C@@H](C)CC)C(=O)N(C)[C@@H](CC(C)C)C(=O)N[C@@H]([C@@H](C)O)C1=O [AP50] ([Sar][NMeL]I[NMeL]T[NBuGly][NMePhe(3-Cl)][NMeL]S(CH2(1,2,4-oxadiazolon-3-yl))[NMeL]D-Piperidide; lactam N-11)",Papp,[1],0.11 ×10⁻⁶ cm/s
"CC[C@H](C)[C@@H]1NC(=O)[C@H](CC(C)C)N(C)C(=O)CCCN(C)C(=O)C[C@@H](C(=O)N2CCCCC2)NC(=O)[C@H](CC(C)C)N(C)C(=O)[C@H](CC(C)C)N(C)C(=O)[C@H]([C@@H](C)O)NC(=O)[C@H](CC(C)C)N(C)C(=O)[C@H](COC[C@@H]2CC(F)(F)CN2)NC(=O)[C@H](CC(C)C)N(C)C(=O)[C@H](Cc2ccccc2)N(C)C1=O [Compound G03] ([NMeGABA][NMeL]I[NMeF][NMeL]S(Pro(4,4-F2)ψ(CH2))[NMeL]T[NMeL][NMeL]D-Piperidide; lactam N-11)",Papp,[2],0.23 ×10⁻⁶ cm/s

# — patent publication US20230096766A1, “AMINO ACID HAVING FUNCTIONAL GROUP CAPABLE OF INTERMOLECULAR HYDROGEN BONDING, PEPTIDE COMPOUND CONTAINING SAME AND METHOD FOR PRODUCTION THEREOF” (Chugai Seiyaku Kabushiki Kaisha, priority 2018, published 2023)
